Patent US12616691B2, “Use of fatty acid oxidation inhibitors as antimicrobials” (Washington University in St. Louis, priority 2018, dated 2026)
In brackets after ≈: the same amount, converted by molar mass. Like-named read-outs stand apart in the source and are kept apart here.

Tests used:
Mtb (H37Rv) = assay: MIC on Mtb (H37Rv) in liquid; format: cell-based, Mycobacterium tuberculosis; details: for MIC: Mycobacterium tuberculosis
LC3 = assay: Autophagy flux (LC3 with and without bafilomycin A1) in H37Rv-infected BMDMs; format: cell-based; details: 500 nM, 3 hours
[1] = design: species or system mice; details: in vivo
Procedure: A pharmacokinetics (PK) study of TMZ in C57BL/6 mice was performed. […] Therefore, subcutaneous osmotic pumps were used to maintain steady state plasma levels of TMZ. A second PK study was performed using subcutaneous osmotic pumps (Alzet Osmotic Pumps) to establish the optimal infusion rate and dosing for a subsequent efficacy study. TMZ steady state exposure in mice was successfully achieved with the use of subcutaneous osmotic pumps.

[2] = system: IL-6, TNF-α, IL-1α/β, and IL-10; assay: Cytokine levels in supernatants of BMDMs; format: cell-based; details: wild type BMDMs, 5 nM, 24 and 72 hpi
Procedure: (§1) Oxygen consumption rate (OCR) and extracellular acidification rate (ECAR) was measured using SeaHorse Analyzers in uninfected wild type and FAO-deficient carnitine palmitoyltransferase 2 KO (Cpt2 cKO) BMDMs treated with 5 nM TMZ. Additionally, whether FAO inhibitors promoted pro-inflammatory signaling was tested. Wild type macrophages were infected with H37Rv and treated with 5 nM TMZ for 24 and 72 hpi. Following filter sterilization, sample supernatants were examined for pro-inflammatory cytokines including, IL-1β, IL-6, TNF-α, and the anti-inflammatory cytokine IL-10.

BMDMs [3] = assay: OCR and ECAR by SeaHorse metabolic flux assay in BMDMs; format: cell-based; details: wild type BMDMs, 5 nM, 3 hours
Procedure: as §1

Mtb = assay: MIC against Mtb in human THP1 cells; format: cell-based, Mycobacterium tuberculosis
Description: If CPT-1 and 3-KAT are the relevant antimicrobial targets, respectively, concordance in the potency of the compounds is anticipated in the assays. […] The MIC of TMZ against Mtb in human THP1 cells was approximately […].

M. abscessus = assay: Intracellular growth of M. abscessus in RAW264.7 cells and BMDMs (CFU); format: cell-based, Mycobacterium abscessus; details: RAW264.7 cells and wt BMDMs, 500 nM
H37Rv = assay: Efficacy of TMZ in acute TB infection in mice (CFU in lungs and spleen); format: in vivo, Mycobacterium tuberculosis; details: 16.8 mg/kg/day, 2 weeks
[4] = human, in vivo, 20 mg; cited from earlier work
total cellular ROS = assay: Total cellular ROS (CellRox staining) in macrophages; format: cell-based
Procedure: Total cellular ROS levels were compared in FAO inhibitor-treated and untreated samples using CellRox (Molecular Probes) staining. Macrophages were infected as previously described and co-localization of Mth with subunits of the NADPH oxidase (p40^phox and gp91^phox/NOX2) were monitored in FAO inhibitor-treated and untreated samples. To determine whether FAO inhibition induced oxidative stress in the host, uninfected RAW 264.7 cells were treated with TMZ at 5 nM and 500 nM and ETM at 50 μM and total cellular ROS was determined at 1, 3, and 24 hours post-treatment using CellRox dye. In parallel, tert-butyl hydroperoxide (0.5 mM tBHP) was used as a positive control. The samples were imaged using confocal microscopy and the fluorescence intensity of each cell was quantified.

mitochondrial ROS = assay: Mitochondrial ROS (mitoSOX) in uninfected BMDMs; format: cell-based; details: TMZ 500 nM 3 hours; antimycin 30 μM, rotenone 10 μM 30 minutes
Procedure: Mitochondrial ROS production was measured in macrophages treated with TMZ in combination with ETC inhibitors antimycin and rotenone. Rotenone inhibits Complex I (NADH coenzymeQ reductase) and antimycin is an inhibitor of Complex III (coenzyme Q: cytochrome C oxidoreductase). Uninfected BMDMs were treated with 500 nM TMZ for 3 hours. Thirty minutes prior to termination of the experiment, antimycin (30 μM) and rotenone (10 μM) were added. Menadione (60 μM, 30 mins), which causes mitochondrial depolarization, was used as a positive control. Mitochondrial ROS production was increased in samples treated with TMZ, antimycin and rotenone (FIG. 14A). However, contrasting results were observed when TMZ was used in combination with the ETC inhibitors.

p62 = assay: Autophagy induction: p62 co-localization with Mtb and p62 puncta in BMDMs; format: cell-based; details: 5 nM
Procedure: Wild type BMDMs were infected with H37Rv expressing DsRed at MOI 1:5 for 4 hours. After bacterial uptake, the culture medium was supplemented with TMZ (5 nm). At 24 hours post infection (hpi), samples were fixed and immunostained with p62 (green). Alternatively, bacterial numbers were enumerated by CFU at 3 days post infection (dpi). For IF, images were captured using a confocal microscope equipped with a 60× oil immersion objective lens. To quantify co-localation of Mtb and autophagosomes each bacteria was converted to a region of interest (ROI) and the mean fluorescence intensity of the p62 signal was measured. To assess autophagy induction, the total p62 puncta per cell in shapes that were untreated or treated with TMZ. IFN-γ, which activates autophagy, was used as a positive control.

FAO [5] = details: cited from earlier work
gp91phox/NOX2 = assay: Co-localization of Mtb with NADPH oxidase subunit NOX2 in BMDMs; format: cell-based; details: 24 hours
BMDMs [6] = assay: Macrophage viability (calcein-AM); format: cell-based, murine; details: 72 hours
Procedure: FIG. 4B depicts the effect of metformin and oxfenicine on macrophage viability. BMDMs were treated with the indicated concentration of compound for 72 hours, and viability was assessed using the cellular dye, calcein-AM, and normalized to untreated controls (--). Data are mean+/−SD.
Importantly, plasma concentrations of TMZ in patients treated for angina (60 mg/day) are 70-100 nM, in line with the ability of TMZ to inhibit FAO in intact hearts at 100 nM. […] BMDMs were treated with the indicated concentration of compound for 72 hours, and viability was assessed using the cellular dye, calcein-AM, and normalized to untreated controls (--).
The antimicrobial activity and FAO inhibition was analyzed for cellular toxicity. BMDMs were treated with the indicated concentration of compound for 72 hours, and viability was assessed using the cellular dye, calcein-AM, and normalized to untreated controls (--).

long-chain 3-KAT = target: T1, long-chain 3-KAT (Rattus norvegicus, UniProt Q60587); details: rat heart mitochondria; cited from earlier work
T1 construct: from tissue; host or cells: rat heart mitochondria
T1 sequence (Q60587 35-475): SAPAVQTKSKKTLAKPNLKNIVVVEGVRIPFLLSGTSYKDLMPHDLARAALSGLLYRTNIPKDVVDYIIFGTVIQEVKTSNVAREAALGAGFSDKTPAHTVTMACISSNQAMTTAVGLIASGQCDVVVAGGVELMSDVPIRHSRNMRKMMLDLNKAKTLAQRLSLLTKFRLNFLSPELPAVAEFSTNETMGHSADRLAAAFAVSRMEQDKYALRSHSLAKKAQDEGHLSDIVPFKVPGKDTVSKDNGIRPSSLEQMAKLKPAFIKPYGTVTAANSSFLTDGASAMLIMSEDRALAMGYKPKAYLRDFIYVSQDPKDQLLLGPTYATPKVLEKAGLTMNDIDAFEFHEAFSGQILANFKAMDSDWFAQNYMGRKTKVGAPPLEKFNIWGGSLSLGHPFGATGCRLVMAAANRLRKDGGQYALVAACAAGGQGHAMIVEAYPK
T1 sequence (Q64428 37-763 partner): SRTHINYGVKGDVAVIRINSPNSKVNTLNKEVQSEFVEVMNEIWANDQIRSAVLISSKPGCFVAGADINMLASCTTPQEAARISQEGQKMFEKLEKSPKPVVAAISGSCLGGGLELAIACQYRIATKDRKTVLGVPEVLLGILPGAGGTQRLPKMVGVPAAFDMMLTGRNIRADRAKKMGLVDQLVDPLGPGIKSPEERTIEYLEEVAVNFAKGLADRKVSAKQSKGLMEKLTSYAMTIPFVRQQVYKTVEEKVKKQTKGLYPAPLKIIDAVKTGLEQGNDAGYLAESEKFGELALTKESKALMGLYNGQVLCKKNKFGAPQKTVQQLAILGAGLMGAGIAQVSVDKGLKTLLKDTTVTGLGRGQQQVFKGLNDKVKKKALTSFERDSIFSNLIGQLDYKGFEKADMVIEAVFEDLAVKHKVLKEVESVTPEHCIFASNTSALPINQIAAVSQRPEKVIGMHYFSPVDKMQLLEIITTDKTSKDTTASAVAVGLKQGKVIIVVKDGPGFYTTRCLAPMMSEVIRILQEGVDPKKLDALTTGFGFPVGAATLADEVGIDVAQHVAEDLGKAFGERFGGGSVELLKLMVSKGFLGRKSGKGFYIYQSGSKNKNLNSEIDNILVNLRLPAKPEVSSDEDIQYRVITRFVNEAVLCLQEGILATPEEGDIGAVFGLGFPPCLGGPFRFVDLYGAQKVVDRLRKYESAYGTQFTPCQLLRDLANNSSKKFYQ

FAO [7] = details: murine and human monocyte-derived macrophages; cited from earlier work
[8] = Mtb (H37Rv) in liquid, read-out: MIC

NNC(=O)c1ccncc1 [INH, isoniazid]
MIC (Mtb (H37Rv); [8]): < 0.3 µM

COc1ccc(CN2CCNCC2)c(OC)c1OC [Trimetazidine, 1-(2,3,4-trimethoxybenzyl)piperazine]
autophagy flux (LC3): No changes | predicted free drug concentrations ([1]; C57BL/6, mouse, 16.8 mg/kg/day): 135 nM | half-life ([1]; mouse): less than an hour | levels of IL-6, TNF-α, IL-1α/β, and IL-10 [2]: No significant difference | ECAR (BMDMs [3]): decrease | MIC against Mtb in human THP1 cells (Mtb): approximately 50 nM | M. abscessus infection (CFU) (M. abscessus): significantly decreased infection | reduction in Mtb CFUs in the lungs (H37Rv; C57Bl/6 mice): 50-70% | bacterial burden in lung and spleen tissues (H37Rv; vs untreated control mice): significantly reduced bacterial burden | Cmax [4]: 313 nM | total cell ROS in Mtb-infected Atg5 KO BMDMs (total cellular ROS; 3 hour treatment): increased ROS signal | total cell ROS in Mtb-infected Nox2 KO BMDMs (total cellular ROS; 24 hours, 5 nM): significant increase in ROS | total cell ROS in Mtb-infected wild type BMDMs (total cellular ROS; 24 hours, 5 nM): induced ROS | mitochondrial ROS production (mitochondrial ROS): increased | total number of p62 puncta in macrophages (p62): significantly increased | co-localization of H37Rv and p62 (p62; 24 hpi): increased | concentration that inhibits FAO in intact hearts (FAO [5]): 100 nM | co-localization of Mtb and NOX2 (gp91phox/NOX2): increased | macrophage toxicity (BMDMs [6]): not related to macrophage toxicity | MIC (Mtb (H37Rv); H37RV): 1000 µM (≈ 266 µg/mL) | IC50 (long-chain 3-KAT): ~0.075 µM

C1CCC(C(CC2CCCCN2)C2CCCCC2)CC1 (centres unmarked) [Perhexiline, 2-(2,2-dicyclohexylethyl)piperidine]
MIC (Mtb (H37Rv); [8]): > 100 µM

antimycin
mitochondrial ROS production (mitochondrial ROS): increased

CN(C)C(=N)N=C(N)N [Metformin, metformin]
MIC (Mtb (H37Rv); [8]): > 15000 µM

C=C(C)[C@H]1Cc2c(ccc3c2O[C@@H]2COc4cc(OC)c(OC)cc4[C@@H]2C3=O)O1 [rotenone]
mitochondrial ROS production (mitochondrial ROS): increased

CCOC(=O)C1(CCCCCCOc2ccc(Cl)cc2)CO1 (centres unmarked) [Etomoxir, ethyl 2-[6-(4-chlorophenoxy)hexyl]oxirane-2-carboxylate]
concentration that blocks FAO in macrophages (FAO [7]): 10 to 25 µM | MIC (Mtb (H37Rv); [8]): > 250 µM | direct effect on Mtb growth (Mtb (H37Rv); ten times the dose that inhibited intracellular Mtb): did not directly prevent Mtb growth
